Source: patent US20040175415A1, “Formulations and methods of delivery of intact tocopheryl succinate to humans” (priority 2003, published 2004)
Read-outs that look alike come from different tables or passages of the source.

Tests used:
[1] = DRI 2000, oral ingestion; cited from earlier work
[2] = room temperature raised to 40° C., man; cited from earlier work
[3] = system: esterase in the digestive juice; settings: human (Howritt et al. 1984, Chessman et al. 1995); cited from earlier work
colon cancer xenografts = settings: ip, 4 injections at 5 mg once every 3 days; cited from earlier work
[4] = system: several lines of cancer cells in culture; settings: prior to the induction of apoptosis; cited from earlier work
[5] = the Merck index; cited from earlier work
[6] = safety of TS treatment in the human subjects; type: in vivo; settings: human subjects of this study
Experimental: The hydrolyzed products of TS are tocopherol (vitamin E) and succinic acid, an endogenous metabolite produced during the oxidation of carbohydrates, amino acids and fat. The upper safety limit for vitamin E is set at 1000 mg or 1 gm by the most recent issue of DRI (Dietary Reference Intake) for vitamin C, vitamin E selenium and carotenoids. The DRI report was published in 2000 and one of the joint inventors of the present invention served on the committee from which the report was sponsored by the Institute of Medicine, US National Academy of Sciences (Chan et al. 2000). The upper dose limit claimed in the invention herein, is below or around the upper safety limit set at 1 gm by the Institute of Medicine for oral ingestion.

[7] = system: chemical-induced forestomach cancer; settings: cited from earlier work
murine melanoma = settings: ip, 15 injections at 3 mg/mouse, cited from earlier work
[8] = system: human breast cancer cells; settings: cited from earlier work
[9] = system: human prostate cancer cells; settings: cited from earlier work
[10] = system: colon cancer cell xenografts; settings: ip, 5 injections of 10 mg/day for 10 days; p < 0.01; cited from earlier work
[11] = intragastric 16 times at 1.25 g/kg
[12] = intragastric 16 times at 2.5 g/kg

Cc1c(C)c2c(c(C)c1O)CC[C@@](C)(CCC[C@H](C)CCC[C@H](C)CCCC(C)C)O2 [vitamin E, RRR-alpha-tocopherol]
upper safety limit [1]: 1000 mg

O=C(O)c1ccccc1O [salicylate]
increase in dermal crossing [2]: 3 fold

tocopheryl succinate [TS]
fate after oral ingestion [3]: convert to tocopherol
reduction in tumor volume (colon cancer xenografts): 75% reduction in tumor volume
cellular lysosomal disruption [4]: major disruption
solubility in vegetable oils [5]: not readily soluble
safety of treatment procedure [6]: no concern regarding the safety
reduction in tumor incident [7, 11]: 18%
reduction in tumor volume [7, 11]: 63%
reduction in tumor incident [7, 12]: 23%
reduction in tumor volume [7, 12]: 81%
less tumor incident ([7]; ip, 8 injections at 20 mg/kg): reduction in tumor volume & 50%
reduction in tumor volume ([7]; ip, 8 injections at 20 mg/kg): ip treatments resulted in 84%
proliferation (murine melanoma): Treatment resulted in reduction of
tumor volume (murine melanoma; p < 0.01): Treatment resulted in reduction of
angiogensis ([8]; ip injection): ip injection also reduce
expression of VEGF (vascular endothelial growth factor) ([8]; ip injection): angiogensis via the suppressing
reduction in tumor weight ([8]; ip, 7 injections at 3 mg/day): ip injection resulted in 63%
effect on tumor with sc injections ([8]; sc, at 150 mg/kg per day): no effect with sc injections.
expression of PSA (prostate specific antigen) [9]: strongly suppresses
expression of the androgen receptors [9]: inhibits
tumor volume [10]: tumor volume reduced
